According to US20210101874A1, “MICROBIOCIDAL OXADIAZOLE DERIVATIVES” (SYNGENTA PARTICIPATIONS AG, priority 2017, published 2021):

Tests used:
[1] = system: Glomerella lagenarium (Colletotrichum lagenarium); assay: Glomerella lagenarium (Colletotrichum lagenarium) liquid culture / cucumber / preventative (anthracnose); assay type: cell-based; conditions: Colletotrichum orbiculare; 20 ppm in the applied formulation; conidia in PDB nutrient broth, 24° C.; 3 to 4 days after application; compared to untreated; read-out: disease control (inhibition of growth measured photometrically)
Procedure, shortened: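 Cryostored conidia in potato dextrose broth added to compound diluted from DMSO solution, 96-well format. Plates incubated at 24 °C. Growth inhibition read photometrically 3 to 4 days after application, as percent activity versus untreated check.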

[2] = system: Puccinia recondita f. sp. Tritici; assay: Puccinia recondita f. sp. tritici / wheat / leaf disc preventative (brown rust); assay type: in vivo; conditions: foliar, 200 ppm in the applied formulation, wheat leaf segments cv. Kanzler, inoculated 1 day after application, compared to untreated, assessed 7 to 9 days after application, read-out: disease control
Procedure, shortened: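 Preventative leaf-segment test, cv. Kanzler on agar: spray compound, inoculate with spore suspension 1 d post-application, hold at 19° C./75% rh, 12 h/12 h light cycle. Read-out = % disease control vs untreated check at 7–9 d; 200 ppm in applied formulation.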

[3] = system: Puccinia recondita f. sp. Tritici; assay: Puccinia recondita f. sp. tritici / wheat / leaf disc curative (brown rust); assay type: in vivo; conditions: foliar, 200 ppm in the applied formulation, wheat leaf segments cv. Kanzler, applied 1 day after inoculation, compared to untreated, assessed 6 to 8 days after application, read-out: disease control
Procedure, shortened: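 Read-out is percent disease control relative to untreated segments, assessed 6 to 8 days after treatment once check disease is adequate. Kanzler wheat leaf segments on agar receive fungal spores, then test compound (DMSO stock diluted in 0.025% Tween20 or water) 1 day later, under 19° C and 75% relative humidity.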

With `O=S(=O)(N1CCOCC1)N(Cc1ccc(-c2noc(C(F)(F)F)n2)cc1)C1CC1` [Compound 1.7, N-cyclopropyl-N-[[4-[5-(trifluoromethyl)-1,2,4-oxadiazol-3-yl]phenyl]methyl] morpholine-4-sulfonamide] the melting point was 99 to 101 °C, the inhibition at 20 ppm [1] was ≥ 80% and the pest or weed control at 200 ppm [2] was ≥ 80%.
With `CN(Cc1ccc(-c2noc(C(F)(F)F)n2)cc1)S(=O)(=O)Cc1ccccc1` [Compound 1.14, N-methyl-1-phenyl-N-[[4-[5-(trifluoromethyl)-1,2,4-oxadiazol-3-yl]phenyl]methyl] methanesulfonamide] the melting point was 109 to 111 °C, the inhibition at 20 ppm [1] was ≥ 80% and the pest or weed control at 200 ppm [2] was ≥ 80%.
For `O=S(=O)(NCc1ccc(-c2noc(C(F)(F)F)n2)cc1)c1ccc(F)cc1F` [Compound 3.5, 2,4-difluoro-N-[[4-[5-(trifluoromethyl)-1,2,4-oxadiazol-3-yl]phenyl]methyl] benzenesulfonamide], the melting point was 112 to 115 °C and the pest or weed control at 200 ppm [2] was ≥ 80%.
In the case of `O=S(=O)(Cc1ccccc1)Nc1ccc(-c2noc(C(F)(F)F)n2)cc1` [Compound 3.34, 1-phenyl-N-[4-[5-(trifluoromethyl)-1,2,4-oxadiazol-3-yl]phenyl]methane-sulfonamide], the melting point was 125 to 135 °C and the inhibition at 20 ppm [1] was ≥ 80%.
For `O=S(=O)(Cc1ccc(Cl)cc1F)NCc1ccc(-c2noc(C(F)(F)F)n2)cc1` [Compound 3.6, 1-(4-chloro-2-fluoro-phenyl)-N-[[4-[5-(trifluoromethyl)-1,2,4-oxadiazol-3-yl]phenyl]methyl] methanesulfonamide], the melting point was 140 to 144 °C and the pest or weed control at 200 ppm [2] was ≥ 80%.
With `CN(C)S(=O)(=O)N(Cc1ccc(-c2noc(C(F)(F)F)n2)cc1)C1CC1` [Compound 1.6, N-(dimethylsulfamoyl)-N-[[4-[5-(trifluoromethyl)-1,2,4-oxadiazol-3-yl]phenyl]methyl] cyclopropanamine] the melting point was 82 to 84 °C, the inhibition at 20 ppm [1] was ≥ 80% and the pest or weed control at 200 ppm [2] was ≥ 80%.
In the case of `CCCNS(=O)(=O)N(Cc1ccc(-c2noc(C(F)(F)F)n2)cc1)C1CC1` [Compound 1.21, 3-[4-[[cyclopropyl (propylsulfamoyl)amino]methyl]phenyl]-5-(trifluoromethyl)-1,2,4-oxadiazole], the melting point was 70 to 73 °C and the inhibition at 20 ppm [1] was ≥ 80%.
For `CON(Cc1ccc(-c2noc(C(F)(F)F)n2)cc1)S(=O)(=O)C1CC1` [Compound 1.9, N-methoxy-N-[[4-[5-(trifluoromethyl)-1,2,4-oxadiazol-3-yl]phenyl]methyl] cyclopropanesulfonamide], the melting point was 73 to 75 °C and the inhibition at 20 ppm [1] was ≥ 80%.
In the case of `O=S(=O)(NCc1ccc(-c2noc(C(F)(F)F)n2)cc1)c1ccccc1` [Compound 3.1, N-[[4-[5-(trifluoromethyl)-1,2,4-oxadiazol-3-yl]phenyl]methyl] benzenesulfonamide], the melting point was 116 to 124 °C, the inhibition at 20 ppm [1] was ≥ 80% and the pest or weed control at 200 ppm [2] was ≥ 80%.
In the case of `CN(C)S(=O)(=O)NCc1ccc(-c2noc(C(F)(F)F)n2)c(F)c1` [Compound 2.30, 3-[4-[(dimethyl-sulfamoylamino)methyl]-2-fluoro-phenyl]-5-(trifluoromethyl)-1,2,4-oxadiazole], the inhibition at 20 ppm [1] was ≥ 80%, the pest or weed control at 200 ppm [3] was ≥ 80% and the pest or weed control at 200 ppm [2] was ≥ 80%.
For `CCCS(=O)(=O)NCc1ccc(-c2noc(C(F)(F)F)n2)c(F)c1` [Compound 2.5, N-[[3-fluoro-4-[5-(trifluoromethyl)-1,2,4-oxadiazol-3-yl]phenyl]methyl] propane-1-sulfonamide], the inhibition at 20 ppm [1] was ≥ 80%, the pest or weed control at 200 ppm [3] was ≥ 80% and the pest or weed control at 200 ppm [2] was ≥ 80%.
In the case of `COC(=O)CS(=O)(=O)N(Cc1ccc(-c2noc(C(F)(F)F)n2)cc1)C(C)C` [Compound 1.85, methyl 2-[isopropyl-[[4-[5-(trifluoromethyl)-1,2,4-oxadiazol-3-yl]phenyl]methyl]sulfamoyl]acetate], the inhibition at 20 ppm [1] was ≥ 80%, the pest or weed control at 200 ppm [3] was ≥ 80% and the pest or weed control at 200 ppm [2] was ≥ 80%.
